In the supplement of paper PMC10627819:

Legend:
S. aureus DSM 20231 [1] = experiment: Bliss interaction score (quartile over a dose matrix) (fitness difference); higher = more antagonism (negative = synergy)
Procedure, shortened: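 Values were capped at 1 after dividing OD595 at stationary-phase entry by the plate's robust no-drug mean. This ratio is fitness, and single-drug fitness was inferred from the combination data. The Bliss score is observed minus product-expected fitness, given as quartiles over technical, biological and donor/recipient replicates.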

S. aureus Newman = experiment: fitness (endpoint OD595 vs no drug) (fraction); higher = more growth
Procedure, shortened: (§1)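 With the first reading as background, OD595 was measured every 30 min for 14 h in 384-well plates kept at 37 °C and inoculated at OD595 0.01. TSB, LB Lennox or CY was the medium. Fitness is the optical density at the transition into stationary phase divided by the robust mean of no-drug control wells, with a cap of 1.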

S. pneumoniae D39V = experiment: as above
Procedure, shortened: as §1

S. aureus DSM 20231 [2] = experiment: as above
Procedure, shortened: as §1

B. subtilis 168 = experiment: as above
Procedure, shortened: as §1
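Throughout, for Bliss interaction score (quartile over a dose matrix): first quartile when negative (synergy) and third quartile when positive (antagonism).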

C[C@]12CC[C@@H]3c4ccc(O)cc4CC[C@H]3[C@@H]1CC[C@@H]2O [Estradiol] + COc1cc(Cc2cnc(N)nc2N)cc(OC)c1OC [Trimethoprim]
Settings | Bliss interaction score
S. aureus DSM 20231 [1] | 0.263

C[C@H]1C[C@@H]2[C@H]([C@@H](O)C[C@@]3(C)[C@H]2CC[C@]3(O)C(=O)CO)[C@@]2(C)C=CC(=O)C=C12 [Methylprednisolone] + CC[C@H]1OC(=O)[C@H](C)C(=O)[C@H](C)[C@@H](O[C@@H]2O[C@H](C)C[C@H](N(C)C)[C@H]2O)[C@](C)(OC)C[C@@H](C)C(=O)[C@H](C)[C@H]2N(CCCCn3cnc(-c4cccnc4)c3)C(=O)O[C@]12C [Telithromycin]
Settings | Bliss interaction score
S. aureus DSM 20231 [1] | -0.356

CC1(C)S[C@@H]2[C@H](NC(=O)[C@H](N)c3ccc(O)cc3)C(=O)N2[C@H]1C(=O)O [Amoxicillin] + O=C(O)[C@H]1/C(=C/CO)O[C@@H]2CC(=O)N21 [Clavulanic acid]
fitness, one replicate
Settings | partner 0.03125 µg/mL | partner 0.0625 µg/mL | partner 0.125 µg/mL | partner 0.5 µg/mL | partner 1 µg/mL | partner 2 µg/mL
S. aureus Newman, first compound 0.0625 µg/mL | 0.895 | 0.816 | 0.768 | – | – | –
S. aureus Newman, first compound 0.125 µg/mL | 0.831 | 0.809 | 0.639 | – | – | –
S. aureus Newman, first compound 0.25 µg/mL | 0.717 | 0.628 | 0.606 | – | – | –
S. pneumoniae D39V, first compound 0.006 µg/mL | – | – | – | 0.391 | 0.315 | 0.242

fitness, S. pneumoniae D39V
Settings | first compound 0.0008 µg/mL | first compound 0.0015 µg/mL | first compound 0.003 µg/mL
partner 0.5 µg/mL | 0.913 | 0.945 | 0.914
partner 1 µg/mL | 0.886 | 0.87 | 0.852
partner 2 µg/mL | 0.812 | 0.819 | 0.713

CN(C)C(=O)C(CCN1CCC(O)(c2ccc(Cl)cc2)CC1)(c1ccccc1)c1ccccc1 [Loperamide] + C[C@H]1C[C@@H]2[C@H]([C@@H](O)C[C@@]3(C)[C@H]2CC[C@]3(O)C(=O)CO)[C@@]2(C)C=CC(=O)C=C12 [Methylprednisolone]
Settings | Bliss interaction score
S. aureus DSM 20231 [1] | -0.341

CO/N=C(\C(=O)N[C@@H]1C(=O)N2C(C(=O)[O-])=C(C[N+]3(C)CCCC3)CS[C@H]12)c1csc(N)n1 [Cefepime] + CO[C@@]12[C@H](COC(N)=O)C3=C(C(=O)C(C)=C(N)C3=O)N1C[C@@H]1N[C@@H]12 [Mitomycin C]
Settings | fitness
S. aureus DSM 20231 [2], first compound 0.125 µg/mL, partner 0.0156 µg/mL | 0.685
S. aureus DSM 20231 [2], first compound 0.125 µg/mL, partner 0.0312 µg/mL | 0.653
S. aureus DSM 20231 [2], first compound 0.125 µg/mL, partner 0.0625 µg/mL | 0.568
S. aureus DSM 20231 [2], first compound 0.25 µg/mL, partner 0.0156 µg/mL | 0.63
S. aureus DSM 20231 [2], first compound 0.25 µg/mL, partner 0.0312 µg/mL | 0.617
S. aureus DSM 20231 [2], first compound 0.25 µg/mL, partner 0.0625 µg/mL | 0.578
S. aureus DSM 20231 [2], first compound 0.5 µg/mL, partner 0.0156 µg/mL | 0.632
S. aureus DSM 20231 [2], first compound 0.5 µg/mL, partner 0.0312 µg/mL | 0.572
S. aureus DSM 20231 [2], first compound 0.5 µg/mL, partner 0.0625 µg/mL | 0.549
S. aureus Newman, first compound 0.125 µg/mL, partner 0.0156 µg/mL | 0.749
S. aureus Newman, first compound 0.125 µg/mL, partner 0.0312 µg/mL | 0.661
S. aureus Newman, first compound 0.125 µg/mL, partner 0.0625 µg/mL | 0.556
S. aureus Newman, first compound 0.25 µg/mL, partner 0.0156 µg/mL | 0.661
S. aureus Newman, first compound 0.25 µg/mL, partner 0.0312 µg/mL | 0.592
S. aureus Newman, first compound 0.25 µg/mL, partner 0.0625 µg/mL | 0.483
S. aureus Newman, first compound 0.5 µg/mL, partner 0.0156 µg/mL | 0.621
S. aureus Newman, first compound 0.5 µg/mL, partner 0.0312 µg/mL | 0.578
S. aureus Newman, first compound 0.5 µg/mL, partner 0.0625 µg/mL | 0.522
S. pneumoniae D39V, first compound 0.007 µg/mL, partner 0.002 µg/mL | 0.88
S. pneumoniae D39V, first compound 0.007 µg/mL, partner 0.004 µg/mL | 0.803
S. pneumoniae D39V, first compound 0.007 µg/mL, partner 0.008 µg/mL | 0.68
S. pneumoniae D39V, first compound 0.0078 µg/mL, partner 0.001075 µg/mL | 0.976
S. pneumoniae D39V, first compound 0.0078 µg/mL, partner 0.00215 µg/mL | 0.924
S. pneumoniae D39V, first compound 0.0078 µg/mL, partner 0.0043 µg/mL | 0.867
S. pneumoniae D39V, first compound 0.014 µg/mL, partner 0.002 µg/mL | 0.859
S. pneumoniae D39V, first compound 0.014 µg/mL, partner 0.004 µg/mL | 0.819
S. pneumoniae D39V, first compound 0.014 µg/mL, partner 0.008 µg/mL | 0.669
S. pneumoniae D39V, first compound 0.0155 µg/mL, partner 0.001075 µg/mL | 0.98
S. pneumoniae D39V, first compound 0.0155 µg/mL, partner 0.00215 µg/mL | 0.931
S. pneumoniae D39V, first compound 0.0155 µg/mL, partner 0.0043 µg/mL | 0.857
S. pneumoniae D39V, first compound 0.028 µg/mL, partner 0.002 µg/mL | 0.716
S. pneumoniae D39V, first compound 0.028 µg/mL, partner 0.004 µg/mL | 0.7
S. pneumoniae D39V, first compound 0.028 µg/mL, partner 0.008 µg/mL | 0.628
S. pneumoniae D39V, first compound 0.031 µg/mL, partner 0.001075 µg/mL | 0.708
S. pneumoniae D39V, first compound 0.031 µg/mL, partner 0.00215 µg/mL | 0.647
S. pneumoniae D39V, first compound 0.031 µg/mL, partner 0.0043 µg/mL | 0.63

CN(C)C(=O)C(CCN1CCC(O)(c2ccc(Cl)cc2)CC1)(c1ccccc1)c1ccccc1 [Loperamide] + CC(=O)NC[C@H]1CN(c2ccc(N3CCOCC3)c(F)c2)C(=O)O1 [Linezolid]
one replicate
Settings | fitness
B. subtilis 168, first compound 25 µg/mL, partner 0.0625 µg/mL | 0.584
B. subtilis 168, first compound 50 µg/mL, partner 0.0625 µg/mL | 0.0437
B. subtilis 168, first compound 100 µg/mL, partner 0.0625 µg/mL | 0.0474
S. pneumoniae D39V, first compound 68.57 µg/mL, partner 0.2 µg/mL | 0.91
S. pneumoniae D39V, first compound 68.57 µg/mL, partner 0.4 µg/mL | 0.884
S. pneumoniae D39V, first compound 68.57 µg/mL, partner 0.8 µg/mL | 0.532

Settings | fitness
B. subtilis 168, first compound 25 µg/mL, partner 0.125 µg/mL | 0.607
B. subtilis 168, first compound 25 µg/mL, partner 0.25 µg/mL | 0.066
B. subtilis 168, first compound 25 µg/mL, partner 0.5 µg/mL | 0.0361
B. subtilis 168, first compound 50 µg/mL, partner 0.25 µg/mL | 0.0362
B. subtilis 168, first compound 50 µg/mL, partner 0.5 µg/mL | 0.0318
B. subtilis 168, first compound 100 µg/mL, partner 0.125 µg/mL | 0.0357
B. subtilis 168, first compound 100 µg/mL, partner 0.25 µg/mL | 0.0269
B. subtilis 168, first compound 100 µg/mL, partner 0.5 µg/mL | 0.0353
S. pneumoniae D39V, first compound 17.14 µg/mL, partner 0.2 µg/mL | 0.815
S. pneumoniae D39V, first compound 17.14 µg/mL, partner 0.4 µg/mL | 0.709
S. pneumoniae D39V, first compound 17.14 µg/mL, partner 0.8 µg/mL | 0.414
S. pneumoniae D39V, first compound 20 µg/mL, partner 0.105 µg/mL | 0.938
S. pneumoniae D39V, first compound 20 µg/mL, partner 0.21 µg/mL | 0.839
S. pneumoniae D39V, first compound 20 µg/mL, partner 0.42 µg/mL | 0.652
S. pneumoniae D39V, first compound 34.28 µg/mL, partner 0.2 µg/mL | 0.806
S. pneumoniae D39V, first compound 34.28 µg/mL, partner 0.4 µg/mL | 0.701
S. pneumoniae D39V, first compound 34.28 µg/mL, partner 0.8 µg/mL | 0.367
S. pneumoniae D39V, first compound 40 µg/mL, partner 0.105 µg/mL | 0.947
S. pneumoniae D39V, first compound 40 µg/mL, partner 0.21 µg/mL | 0.843
S. pneumoniae D39V, first compound 40 µg/mL, partner 0.42 µg/mL | 0.58
S. pneumoniae D39V, first compound 80 µg/mL, partner 0.42 µg/mL | 0.179

C[C@H]1COc2c(N3CCN(C)CC3)c(F)cc3c(=O)c(C(=O)O)cn1c23 [Levofloxacin] + CC1=C(C(=O)O)N2C(=O)[C@@H](NC(=O)[C@H](N)c3ccccc3)[C@H]2SC1 [Cephalexin]
fitness, one replicate
Settings | first compound 0.001 µg/mL | first compound 0.002 µg/mL | first compound 0.0039 µg/mL | first compound 0.2 µg/mL | first compound 0.4 µg/mL | first compound 0.8 µg/mL
B. subtilis 168, partner 0.25 µg/mL | 0.969 | 0.896 | 0.836 | – | – | –
B. subtilis 168, partner 0.5 µg/mL | 0.991 | 0.91 | 0.838 | – | – | –
B. subtilis 168, partner 1 µg/mL | 0.921 | 0.919 | 0.868 | – | – | –
S. pneumoniae D39V, partner 0.125 µg/mL | – | – | – | 0.874 | 0.758 | 0.316
S. pneumoniae D39V, partner 0.25 µg/mL | – | – | – | 0.91 | 0.782 | 0.354
S. pneumoniae D39V, partner 0.5 µg/mL | – | – | – | 0.903 | 0.8 | 0.369

Settings | fitness
B. subtilis 168, first compound 0.0312 µg/mL, partner 0.125 µg/mL | 0.0416
B. subtilis 168, first compound 0.0312 µg/mL, partner 0.25 µg/mL | 0.0347
B. subtilis 168, first compound 0.0312 µg/mL, partner 0.5 µg/mL | 0.036
B. subtilis 168, first compound 0.0625 µg/mL, partner 0.125 µg/mL | 0.0518
B. subtilis 168, first compound 0.0625 µg/mL, partner 0.25 µg/mL | 0.037
B. subtilis 168, first compound 0.0625 µg/mL, partner 0.5 µg/mL | 0.043
B. subtilis 168, first compound 0.125 µg/mL, partner 0.125 µg/mL | 0.0423
B. subtilis 168, first compound 0.125 µg/mL, partner 0.25 µg/mL | 0.0386
B. subtilis 168, first compound 0.125 µg/mL, partner 0.5 µg/mL | 0.0448
S. pneumoniae D39V, first compound 0.1725 µg/mL, partner 2 µg/mL | 0.176
S. pneumoniae D39V, first compound 0.1725 µg/mL, partner 4 µg/mL | 0.0529
S. pneumoniae D39V, first compound 0.345 µg/mL, partner 2 µg/mL | 0.103
S. pneumoniae D39V, first compound 0.345 µg/mL, partner 4 µg/mL | 0.001
S. pneumoniae D39V, first compound 0.69 µg/mL, partner 1 µg/mL | 0.235
S. pneumoniae D39V, first compound 0.69 µg/mL, partner 2 µg/mL | 0.0462
S. pneumoniae D39V, first compound 0.69 µg/mL, partner 4 µg/mL | 0.022
